# Reference: patent US20230292776A1, “GAS PHASE TREATMENT OF PRODUCE” (priority 2022, published 2023)
# Key:
# avocados = test: Durometer shore (firmness, ripening) of treated avocados; type: in vivo, avocado; details: for average increase of shore over uninfected and untreated avocados: Example 22
# Procedure: Example 9. The antifungal activity of a range of AITC and carvacrol vapor exposure times was tested against Cg in avocados. To measure the effect of the various treatments on ripening, durometer shore was taken after 7 days of incubation at ambient temperature and high humidity. All samples were wounded by removing the stem and infected by dispensing 1000 Cg spores suspended in 10 μL of water in the wound. The test groups consisted of avocados that were: infected and left untreated on the benchtop; infected and left untreated under a fume hood; exposed to the vapor of 3 mL of AITC in a Petri dish for 24 hours, 48 hours, and 72 hours; and exposed to the vapor of 3 mL of carvacrol in a Petri dish for 72 hours. FIG. 11 quantifies the infection results. […] All exposure times to AITC vapor reduced the incidence of Cg mold compared to the untreated samples. A 24 hour AITC exposure reduced the incidence of Cg mold by 90%. A 48 hour AITC exposure reduced the incidence of Cg mold by 97%. A 72 hour AITC exposure reduced the incidence of Cg mold by 83%.
# Example 10. The antifungal activity of a range of AITC vapor exposure times were tested against Cg in avocados. To measure the effect of the various treatments on ripening, durometer shore was taken after 6 days of incubation at ambient temperature and high humidity. All samples were wounded by removing the stem and infected by dispensing 1000 Cg spores suspended in 10 μL of water in each wound. The test groups consisted of avocados that were: infected and left untreated on the benchtop; infected and left untreated in a fume hood; exposed to the vapor of 3 mL of AITC in a Petri dish for 24 hours, 48 hours, and 72 hours. FIG. 13 quantifies the infection results. […] All exposure times to AITC vapor reduced the incidence of Cg mold compared to the untreated samples.
# Example 21. The antifungal activity of avocados exposed to AITC vapor and prochloraz was tested against Cg in avocados. To measure the effect of the various treatments on ripening, durometer shore was taken after 5 days of incubation at ambient temperature (about 20° C. to about 25° C.) and high humidity (about 88% relative humidity to about 93% relative humidity). All samples were wounded by removing the stem and infected by dispensing 1000 Cg spores suspended in 10 μL of water in the wound. Exposure to vapor was done by placing the avocados in an airtight container, dispensing AITC onto Whatman filter paper discs, suspending the discs in front of a battery-powered fan, closing the container and incubating the avocados for 30 minutes. After vapor exposure, the avocados were left at ambient temperature, high humidity, and assessed for Cg mold on day 5. Treatment groups consisted of avocados that were: exposed for 30 minutes to the vapor of 125 μL of AITC disposed on a filter paper disc; dipped in a solution of 0.1 g/L of prochloraz and placed to dry on a rack in front of a fan for 30 min; infected and left untreated; and uninfected and untreated. […] To prepare the 0.1 g/L of prochloraz, 10 mg of prochloraz was mixed with 10 mL of ethanol and 90 mL of water. […] A 24 hour AITC exposure reduced the incidence of Cg mold by 90%. […] The mean shore value for the untreated avocados was 28.8 (standard deviation (SD)=10.8). The mean shore value for the infected avocados was 47.3 (SD=11.8). The mean shore value of the positive control, prochloraz treated avocados was 44.3 (SD=14.7). The mean shore value of the AITC treated avocados was 61.1 (SD=10.5).
# Durometer Shore Measurement: A Fruit Hardness Tester— HPE III Fff w/Sphere Ø 5.0 mm Test Anvil is used for the measurements. The Operating Procedure is as follows: • 1) At room temperature and 1 atm pressure, switch on the measuring device and press the hull or sleeve against the specimen so that the contact surface of the pressure plate rests on the fruit. […]
# mold = test: AITC vapor against mold growth on produce in an airtight bin (general description); type: in vivo
# Procedure: The plurality of produce items is contacted with the antimicrobial agent for a length of time in a range of 1 minute to 100 hours (e.g., 10 minutes to 1 hour). The length of time is dependent on a variety of factors, such as type of produce, target pathogen, and the degree to which the enclosure is sealed. Examples include exposure times between 15 minutes and 96 hours for allyl isothiocyanate (AITC) in an airtight bin. […] Lower antimicrobial agent concentrations with longer exposure times or higher antimicrobial concentrations with shorter exposure times can also be used. For example, the plurality of produce items is contacted with the antimicrobial agent for a length of time in a range of 15 minute to 72 hours.
# A concentration of the antimicrobial agent in the headspace of the enclosure is typically in a range of about 20 parts per million by volume (ppmv) to about 5000 ppmv (e.g., about 550 ppmv to about 4800 ppmv, or about 25 ppmv to about 1250 ppmv). Depending on type of produce and exposure time in the enclosure, antimicrobial agent concentrations greater than about 2200 ppmv can sometimes damage the produce. […] In some embodiments, the antimicrobial agent is provided in a concentration to the enclosure in a headspace at least about 1200 ppmv, at least about 1250 ppmv, or about 1250 ppmv to about 5000 ppmv, or about 1250 ppmv to about 4900 ppmv.
# [1] = test system: Penicillium digitatum (Pd); test: Antifungal activity of vapor against Penicillium digitatum (Pd) in wounded, infected mandarins; type: in vivo; details: for effect on Pd mold: Example 5, assessed after 6 days; for infected mandarins: Example 6
compound,measurement,setting,value
"C=CCN=C=S [AITC, allyl isothiocyanate]",average increase of durometer shore over untreated avocados,"avocados; Example 9, all AITC treatments (3 mL; 24, 48, 72 hours), after 7 days, P value<0.0001",20.3 shore
same,average increase of durometer shore over infected avocados,"avocados; Example 10, all AITC treatments (3 mL; 24, 48, 72 hours), after 6 days, P value<0.005",15.4 shore
same,shore higher than the untreated avocados,"avocados; Example 21, 125 μL, 30 minutes, after 5 days",more than 30 shore
same,mean shore value,"avocados; Example 21, Cg-infected avocados, AITC 125 μL 30 minutes, prochloraz 0.1 g/L dip, after 5 days",61.1 (SD=10.5)
same,average increase of shore over uninfected and untreated avocados,"avocados; 250 μL, 30 minutes, after 5 days, P value=0.0016",about 10 shore
same,average increase of shore over uninfected and untreated avocados,"avocados; 500 μL, 30 minutes, after 5 days, P value<0.0001",about 28.5 shore
same,average increase of shore over untreated avocados,"avocados; Example 23, 500 μL AITC vapor, coating agent 40 g/L dip, after 11 days, P value<0.0001",22.5 shore
same,mold growth on the produce,"mold; AITC concentration of 1000 ppm, exposure time of 15 minutes, airtight bin",slowed mold growth on the produce
same,efficacy against mold on the produce,"mold; AITC concentration of 1000 ppm, exposure time of 30 min or longer",good efficacy
same,effect on mold growth,mold; AITC concentrations in a range of 550 ppmv to 4800 ppmv,some inhibitory effect on mold growth
same,effect on mold growth,mold; AITC concentrations over 1000 ppmv,tended to be completely inhibitory
same,inhibition of fungal growth (Pd),"[1]; Example 2, mandarins, 72 hours vapor of 3 mL",approximately 100%
same,Pd mold growth,"[1]; Example 4, doses of 125 μL, 250 μL & 500 μL, airtight container, 18 hours, 6 days",substantially prevented the growth mold
same,effect on Pd mold,"[1]; 125 μL (730 ppm), 30 min exposure",greatly reduced severity of Pd mold infection
same,effect on Pd mold,"[1]; 125 μL, 1 hour exposure",greatly reduced severity and incidence of Pd mold
same,infected mandarins,"[1]; 125 μL, 30 minutes, treated after 24 hours",8.3%
same,infected mandarins,"[1]; 125 μL, 30 minutes, treated after 48 hours",25%
same,infected mandarins,"[1]; 125 μL, 30 minutes, treated after 72 hours",16.7%
same,infected mandarins,"[1]; 125 μL, 30 minutes, treated after 96 hours",81.6%
same,infected mandarins,"[1]; 125 μL, 30 minutes, treated immediately after infection (0 hours)",58.3%
same,effect on Pd infection at lower dose,"[1]; Example 19, 62.5 μL (50% of the minimum inhibitory concentration), 30 minutes","tends to reduce the severity of infection, but not eliminate the incidence of infection"
